Experimental findings from patent publication US5817815A, “Pharmacologically active enantiomers” (Angelini Ricerche S.p.A. Societa Consortile, priority 1993, dated 1998) are described below.

As a reminder, the ED50 is the dose that gives a 50% effect, or the effect in half of the subjects. Usually IC50 stands for the concentration that gives 50% inhibition. A higher IC50 goes with weaker potency.

A short description of assay [1]: analgesic activity, phenylquinone test in mice via subcutaneous route. Particulars: for ED50: Mus musculus, sc, mice, subcutaneous, phenylquinone test; for analgesic activity, in words: comparison of enantiomers and racemate. It counts as in vivo. Here is the method: Thirty animals were treated with each product.
Assay [2] addresses alpha 1 adrenergic receptors. The assay can be described thus: affinity for alpha 1 adrenergic receptors, receptor binding test. Particulars: for IC50: receptor binding; for interference with the adrenergic receptor, in words: comparison with racemate. The text has this: (§1) Since an interference with the adrenergic system is an index of undesirable effects, both the capability of binding to alpha 1 adrenergic receptors, as IC50 (Table 2), and the alphalytic activity (Table 3) of the same compounds have been evaluated.
As far as the receptor binding test is concerned, reference is made to "Molecular Pharmacology", 20, 295-301, (1981).

The target of assay [3] is T1, deferent of rat (Rattus norvegicus).
T1 construct: evaluated on an isolated organ (deferent of rat); from tissue; host or cells: isolated vas deferens of rat
The assay can be described thus: alphalytic activity on an isolated organ (deferent of rat). The settings on record: isolated deferent of rat; read-out: Alphalytic activity pA2 (converted). Here is the method: as §1
(§2) In turn, the alphalytic activity was evaluated on an isolated organ (deferent of rat) according to the technique described in "Clinical and Experimental Pharmacology & Physiology", 6, 275-279, (1979).

A further assay deals with T2, deferent of rat (Rattus norvegicus, UniProt P43140).
T2 construct: evaluated on an isolated organ (deferent of rat); from tissue; host or cells: isolated vas deferens of rat
T2 sequence (P43140 1-466): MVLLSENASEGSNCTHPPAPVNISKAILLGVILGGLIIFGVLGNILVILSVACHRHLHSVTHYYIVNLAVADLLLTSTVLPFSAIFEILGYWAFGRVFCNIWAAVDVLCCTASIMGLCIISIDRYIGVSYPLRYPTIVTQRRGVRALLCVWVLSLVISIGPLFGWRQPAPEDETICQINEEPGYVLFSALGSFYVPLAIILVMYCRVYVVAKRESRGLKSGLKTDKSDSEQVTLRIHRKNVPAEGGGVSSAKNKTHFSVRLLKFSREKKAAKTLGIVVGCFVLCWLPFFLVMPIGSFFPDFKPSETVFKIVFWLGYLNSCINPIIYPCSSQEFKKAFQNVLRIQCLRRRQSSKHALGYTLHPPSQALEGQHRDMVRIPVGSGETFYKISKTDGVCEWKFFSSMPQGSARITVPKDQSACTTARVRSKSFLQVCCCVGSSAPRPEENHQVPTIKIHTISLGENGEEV
The description is as above. Particulars: comparison of enantiomers and racemate. As to the method: as §1, §2

For the molecule `CC1CN(c2cccc(Cl)c2)CCN1CCCn1nc2ccccn2c1=O` (racemic) [Racemate, reference compound], in assay [1], the ED50 is more than 12.5 mg/kg and the “analgesic activity, in words” value is recorded as “less analgesic activity compared to the single enantiomers”. In assay [2], this molecule registered an IC50 of 471 nM. In assay [3], the Kb is 20 nM.
`C[C@@H]1CN(c2cccc(Cl)c2)CCN1CCCn1nc2ccccn2c1=O` [(R), (R)-2-[3-[4-(3-chlorophenyl)-1-(2-methyl)-piperazinyl]-propyl]-1,2,4-triazol[4,3-a]-pyridine-3(2H)-one] had an ED50 in assay [1] of 9.02 mg/kg. Also, in assay [2], the “interference with the adrenergic receptor, in words” value is “lower than those of racemate” and the IC50 amounted to 533 nM. For the same molecule, in assay [3], the Kb is 178 nM. Also, the “alphalytic activity, in words” value at deferent of rat is “lower than those of racemate”.
Regarding `C[C@H]1CN(c2cccc(Cl)c2)CCN1CCCn1nc2ccccn2c1=O` [(S), (S)-2-[3-[4-(3-chlorophenyl)-1-(2-methyl)-piperazinyl]-propyl]-1,2,4-triazol[4,3-a]-pyridine-3(2H)-one], in assay [1], the ED50 was 7.8 mg/kg and the “analgesic activity, in words” value is recorded as “more active than (R) enantiomer”. Also, in assay [2], the “interference with the adrenergic receptor, in words” value is listed as “lower than those of racemate” and the IC50 is 981 nM. Moreover, the Kb in assay [3] was 3980 nM. The “alphalytic activity, in words” value at deferent of rat is “lower than those of racemate”. Besides, the “alphalytic activity, in words” value on deferent of rat (listed as (S) enantiomer) is “lower than that of (R) enantiomer”.
